Patent US20220175777A1, “Inhibitors of Multidrug Resistance Transporter P-Glycoprotein” (Southern Methodist University, priority 2014, published 2022)

Molecular target: P-gp (Homo sapiens, UniProt P08183)
Procedure: Stimulation of basal ATPase by 29-variants was used as an indicator that a compound may be a P-gp transport substrate. Effects on stimulated P-gp ATPase activity indicated whether a compound directly interfered with ATP usage by the protein (***, p<0.001; **, p<0.01; *, p<0.1; NS, not significant). Quantitative cellular accumulation of 29-variants was performed using LC-MS/MS and is presented as a ratio of the cellular amounts of 29-variants in the presence of P-gp inhibitor, tariquidar, divided by amounts accumulated in its absence. […] Binding of an ATP analog, SL-ATP, to P-gp was used to determine whether ATP binding to P-gp was affected by the 29-variants. Values+/−standard deviations are shown for at least three different P-gp preparations and three independent SL-ATP titration experiments. The values for SL-ATP binding in the presence of 29 were taken directly from Brewer et al. (2014).
Intracellular accumulation of compound 29 variants. Cell accumulation assays for each of the 29 variants were performed as in reference^28 to more directly assess whether the compounds were indeed transport substrates for P-gp.

Chain of P-gp (P08183 whole entry): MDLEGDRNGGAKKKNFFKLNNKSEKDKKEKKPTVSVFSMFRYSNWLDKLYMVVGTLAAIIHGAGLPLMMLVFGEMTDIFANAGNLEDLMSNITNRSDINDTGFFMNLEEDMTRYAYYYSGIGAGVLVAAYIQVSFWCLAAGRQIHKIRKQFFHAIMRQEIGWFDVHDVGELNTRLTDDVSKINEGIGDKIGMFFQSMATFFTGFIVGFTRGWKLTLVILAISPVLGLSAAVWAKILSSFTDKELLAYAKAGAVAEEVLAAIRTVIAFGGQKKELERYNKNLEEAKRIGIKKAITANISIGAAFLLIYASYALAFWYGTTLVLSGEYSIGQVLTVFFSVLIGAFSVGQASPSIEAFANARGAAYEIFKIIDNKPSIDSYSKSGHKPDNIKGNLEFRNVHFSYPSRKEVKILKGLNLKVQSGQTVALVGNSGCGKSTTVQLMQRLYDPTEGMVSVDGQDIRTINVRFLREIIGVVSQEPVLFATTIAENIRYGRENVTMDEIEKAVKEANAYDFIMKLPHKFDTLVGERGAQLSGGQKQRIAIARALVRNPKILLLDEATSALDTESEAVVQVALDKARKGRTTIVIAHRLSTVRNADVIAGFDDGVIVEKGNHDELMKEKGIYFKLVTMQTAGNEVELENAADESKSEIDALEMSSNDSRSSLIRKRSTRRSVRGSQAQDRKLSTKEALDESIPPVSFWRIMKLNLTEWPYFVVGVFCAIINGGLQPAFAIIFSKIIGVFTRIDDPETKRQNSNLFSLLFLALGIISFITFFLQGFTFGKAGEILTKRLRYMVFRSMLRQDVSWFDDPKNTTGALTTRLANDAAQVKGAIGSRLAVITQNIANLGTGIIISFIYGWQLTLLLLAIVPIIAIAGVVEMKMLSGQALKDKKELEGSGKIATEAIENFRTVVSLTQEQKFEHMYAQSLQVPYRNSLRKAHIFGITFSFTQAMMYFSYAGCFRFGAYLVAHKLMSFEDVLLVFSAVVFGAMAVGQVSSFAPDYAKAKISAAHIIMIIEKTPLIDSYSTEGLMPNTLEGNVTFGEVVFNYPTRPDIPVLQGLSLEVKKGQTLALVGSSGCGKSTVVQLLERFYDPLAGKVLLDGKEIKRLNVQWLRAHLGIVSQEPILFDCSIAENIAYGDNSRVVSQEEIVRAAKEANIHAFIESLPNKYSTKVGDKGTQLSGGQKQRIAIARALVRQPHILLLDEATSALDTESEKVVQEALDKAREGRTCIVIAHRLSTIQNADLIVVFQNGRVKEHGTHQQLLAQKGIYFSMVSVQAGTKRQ

Intracellular accumulation in the presence versus absence of TQR: very strong cellular accumulation
Compound: COc1cccc2c1C(=O)c1c(O)c3c(c(O)c1C2=O)C[C@@](O)(C(C)=O)C[C@@H]3O[C@H]1C[C@H](N)[C@H](O)[C@H](C)O1 [DNR, Daunorubicin, reference compound]
